{"source": "patent US10787419B2", "about": "“Cannabinoid receptor mediating iminopyrazole compounds” (The United States of America, as represented by the …, priority 2012, dated 2020)", "key": {"CB1": {"target": "CB1 (Mus musculus (Mouse), UniProt P47746)", "sequence (P47746 whole entry)": "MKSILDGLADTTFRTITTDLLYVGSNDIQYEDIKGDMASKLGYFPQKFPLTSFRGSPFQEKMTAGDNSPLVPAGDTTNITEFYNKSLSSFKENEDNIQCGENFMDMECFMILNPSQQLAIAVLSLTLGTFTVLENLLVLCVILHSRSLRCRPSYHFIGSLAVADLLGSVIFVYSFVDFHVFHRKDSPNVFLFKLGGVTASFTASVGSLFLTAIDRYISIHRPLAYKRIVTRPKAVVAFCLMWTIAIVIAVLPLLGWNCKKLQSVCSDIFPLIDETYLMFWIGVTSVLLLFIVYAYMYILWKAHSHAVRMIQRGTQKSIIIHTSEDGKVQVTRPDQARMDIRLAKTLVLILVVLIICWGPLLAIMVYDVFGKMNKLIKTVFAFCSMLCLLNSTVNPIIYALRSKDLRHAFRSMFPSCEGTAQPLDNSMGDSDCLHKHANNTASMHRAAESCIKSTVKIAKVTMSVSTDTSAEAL", "experiment": "radioligand displacement assay in mouse brain membranes (Ki CB1)", "assay_type": "binding"}, "recombinant human AMPK": {"test_system": "recombinant human AMPK", "experiment": "recombinant AMPK activity assay", "assay_type": "biochemical", "conditions": "rimonabant at 1 μM", "excerpt": "Guanides and biguanides, such as metformin, are effective as antidiabetic agents linked to their AMPK activating properties (Hardie et al., Chem Biol. 2012, […]; 1222-1236). Guanidine-containing analogs in certain embodiments were screened for activation of recombinant human AMPK, using an assay kit (Cyclex, Nagona, Japan), as illustrated in FIG. 8.\nActivators of AMP-activated protein kinase (AMPK), such as guanidines of biguanides such as metformin are useful for the treatment of diabetes owing to their AMPK activating property (Hardie, et al., Chem & Biol 2012, 19(10); 1222-1236). Guanidine analogues of certain embodiments were screened for AMPK activation by using a recombinant AMPK activity assay."}, "[1]": {"test_system": "CCl4-induced liver fibrosis", "experiment": "CCl4-induced liver fibrosis model in mice", "assay_type": "in vivo", "method": "CCL-induced liver fibrosis was generated by intraperitoneal injection of CCL4 (1 ml/kg, diluted 1:10 corn oil), twice weekly for 8 weeks. […] Data represent mean±SEM from 7-8 mice per group. *P<0.05 relative to control. ^#indicates significant treatment effect (P<0.05) relative to CCl4-treated vehicle group.\nFibrosis results from excessive extracellular matrix deposition by myofibroblasts accompanying chronic inflammation and wound healing, and is a key pathogenic process in many organs, including kidneys, lung, and liver."}, "[2]": {"experiment": "tissue levels in brain and plasma after administration to mice", "conditions": "1 hour after 10 mg/kg to mice; indicating good oral bioavailability"}, "iNOS": {"target": "iNOS (Mus musculus (Mouse), UniProt P29477)", "experiment": "iNOS activity in lung homogenates from LPS-treated mouse", "assay_type": "biochemical", "protocol": "Cellular iNOS activity was determined after replacing growth medium with reaction mixtures containing appropriate ligands (100 nM). ^& Mice were treated in vivo with vehicle or LPS (25 mg/kg, ip) and sacrificed 6 h later. Crude homogenate prepared from lung were incubated with the indicated ligands and iNOS activity was determined using a radioactivity-based assay."}, "[3]": {"experiment": "in vivo metabolism, metabolite generation in plasma by LC-MS/MS", "conditions": "1 h after oral 10 mg/kg in mice"}, "DIO mice": {"test_system": "DIO mice", "experiment": "mice with diet-induced obesity (DIO) treated orally for 14 days", "assay_type": "in vivo", "method": "Glucose tolerance and insulin sensitivity were determined on the last 2 days of treatment, using i.p. glucose tolerance and insulin sensitivity tests."}, "ZDF rats": {"test_system": "ZDF rats", "experiment": "Zucker diabetic fatty (ZDF) rat model of type 2 diabetes", "assay_type": "in vivo", "conditions": "10 mg/kg/day oral gavage, 7 days"}, "[4]": {"conditions": "10 mg/kg/day orally for 4 weeks"}, "[5]": {"conditions": "DIO mice, 10 mg/kg/day oral, 14 days"}}}
{"smiles": "N=C(N/C(=N\\S(=O)(=O)c1ccc(Cl)cc1)N1CC(c2ccccc2)C(c2ccc(Cl)cc2)=N1)N1CCCC1", "note": "(stereo not shown) [Compound 55]", "values": [{"measurement": "Ki", "setting": "CB1; Table 1", "value": 241, "unit": "nM"}, {"measurement": "Ki", "setting": "CB1; Table 2", "value": 241, "unit": "nM"}]}
{"smiles": "Cc1c(C(=O)NN2CCCCC2)nn(-c2ccc(Cl)cc2Cl)c1-c1ccc(Cl)cc1", "note": "[rimonabant, reference compound]", "values": [{"measurement": "AMPK activity", "setting": "recombinant human AMPK", "value": "no effect"}, {"measurement": "CCl4-induced elevation of iNOS immunostaining", "setting": "[1]; [4]", "value": "not by rimonabant"}]}
{"smiles": "CNC(N)=NC(=NS(=O)(=O)c1ccc(Cl)cc1)N1CC(c2ccccc2)C(c2ccc(Cl)cc2)=N1", "note": "(stereo not shown) [Compound 45]", "values": [{"measurement": "Ki", "setting": "CB1; Table 2", "value": 327, "unit": "nM"}]}
{"smiles": "N=C(N/C(=N\\S(=O)(=O)c1ccc(Cl)cc1)N1CC(c2ccccc2)C(c2ccc(Cl)cc2)=N1)c1ccncc1", "note": "(stereo not shown) [Compound 12]", "values": [{"measurement": "Ki", "setting": "CB1; Table 1", "value": 34, "unit": "nM"}, {"measurement": "Ki", "setting": "CB1; Table 2", "value": 34, "unit": "nM"}]}
{"smiles": "CC(=N)N/C(=N\\S(=O)(=O)c1ccc(Cl)cc1)N1C[C@H](c2ccccc2)C(c2ccc(Cl)cc2)=N1", "note": "[Compound 2E1]", "values": [{"measurement": "plasma levels after oral or i.p. administration", "setting": "[2]", "value": "comparable"}, {"measurement": "CCl4-induced collagen deposition / liver fibrosis by Sirius red and Masson's trichrome staining", "setting": "[1]; [4]", "value": "more effective than rimonabant"}, {"measurement": "CCl4-induced elevation of iNOS immunostaining", "setting": "[1]; [4]", "value": "dramatically attenuated"}, {"measurement": "anti-fibrotic efficacy in liver fibrosis", "setting": "[1]; compared with rimonabant", "value": "higher anti-fibrotic efficacy than rimonabant"}]}
{"smiles": "NC=NC(=NS(=O)(=O)c1ccc(Cl)cc1)N1CC(c2ccccc2)C(c2ccc(Cl)cc2)=N1", "note": "(stereo not shown) [Compound 1]", "values": [{"measurement": "Ki", "setting": "CB1; Table 2", "value": 392, "unit": "nM"}]}
{"smiles": "N=C(N/C(=N\\S(=O)(=O)c1ccc(Cl)cc1)N1CC(c2ccccc2)C(c2ccc(Cl)cc2)=N1)C1CC1", "note": "(stereo not shown) [Compound 4]", "values": [{"measurement": "Ki", "setting": "CB1; Table 1", "value": 13, "unit": "nM"}, {"measurement": "Ki", "setting": "CB1; Table 2", "value": 13, "unit": "nM"}]}
{"smiles": "CC(=N)N/C(=N\\S(=O)(=O)c1ccc(Cl)cc1)N1CC(c2ccccc2)C(c2ccc(Cl)cc2)=N1", "note": "(racemic) [Compound 2, 3-(4-chlorophenyl)-N′-((4-chlorophenyl)sulfonyl)-N-(1-iminoethyl)-4-phenyl-4,5-dihydro-1H-pyrazole-1-carboximidamine]", "values": [{"measurement": "inhibition at 1 µM", "setting": "iNOS", "value": "~48", "unit": "%"}, {"measurement": "in vivo metabolism", "setting": "[3]", "value": "underwent in vivo metabolism to liberate the amidine moiety and a metabolite"}, {"measurement": "hepatic TG", "setting": "DIO mice; [5]", "value": "reduced"}, {"measurement": "hyperinsulinemia", "setting": "DIO mice; [5]", "value": "abrogated"}, {"measurement": "hyperleptinemia", "setting": "DIO mice; [5]", "value": "reduced"}, {"measurement": "food intake reduction", "setting": "DIO mice; DIO mice, 10 mg/kg/day oral, during the first week", "value": "~20", "unit": "%"}, {"measurement": "glucose intolerance and insulin resistance", "setting": "DIO mice; DIO mice, 10 mg/kg/day oral, i.p. glucose tolerance and insulin sensitivity tests, last 2 days", "value": "nearly completely normalized"}, {"measurement": "In vivo Comments", "setting": "DIO mice; mouse, in vivo", "value": "anti-diabetic anti-obesity"}, {"measurement": "CCl4-induced collagen deposition / liver fibrosis by Sirius red and Masson's trichrome staining", "setting": "[1]; [4]", "value": "more effective than rimonabant"}, {"measurement": "CCl4-induced elevation of iNOS immunostaining", "setting": "[1]; [4]", "value": "attenuated"}, {"measurement": "α-SMA, Procollagen-1 and Fibronectin-1 mRNA", "setting": "[1]; [4]", "value": "more effective than rimonabant"}, {"measurement": "blood glucose", "setting": "ZDF rats", "value": "prevented the increase in blood glucose"}, {"measurement": "insulin and c-peptide levels", "setting": "ZDF rats", "value": "prevented"}]}
{"smiles": "NN/C(=N\\S(=O)(=O)c1ccc(Cl)cc1)N1CC(c2ccccc2)C(c2ccc(Cl)cc2)=N1", "note": "(stereo not shown) [Compound 73]", "values": [{"measurement": "Ki", "setting": "CB1; Table 1", "value": 33, "unit": "nM"}, {"measurement": "Ki", "setting": "CB1; Table 2", "value": 33, "unit": "nM"}]}
{"smiles": "N=C(N/C(=N\\S(=O)(=O)c1ccc(Cl)cc1)N1CC(c2ccccc2)C(c2ccc(Cl)cc2)=N1)c1ccccc1", "note": "(stereo not shown) [Compound 8]", "values": [{"measurement": "Ki", "setting": "CB1; Table 1", "value": 26, "unit": "nM"}, {"measurement": "Ki", "setting": "CB1; Table 2", "value": 26, "unit": "nM"}]}
